# Test results taken from ChEMBL document CHEMBL3507680, “University of Dundee, Gates Library screen for HepG2 cell viability”.
# Assay: Human HepG2 cell viability assay in 384 well format
# Assay type: toxicity, cell-based
# Design: dose 125 nL, time 70.5 hour; concentration not given beside the values
# Conditions: HepG2 cells, read-out: Inhibition
row,SMILES,cytotoxicity at 70.5 h [%]
1,Cc1noc(CNC(=O)[C@@H](C)NC(=O)OC(C)(C)C)n1,-2.55
2,c1cc(N2CCCC2c2cnccn2)ncn1 (centres undefined),-10
3,N#Cc1cc(NC(=O)c2cc[nH]n2)ccc1N1CCC(O)CC1,9.29
4,CN1CC[C@H]2[C@H](C[C@@H](Cn3cncn3)N2c2nccs2)C1,-8.05
5,COCC(=O)N1CCN(S(=O)(=O)c2ccccc2)[C@@H](C(=O)OC)C1,-5.08
6,c1ccc(Cn2cccn2)c(CNCc2cnc(N3CCCC3)nc2)c1,-13.6
7,Cc1cccc(NC(=O)Cn2nc3ccccn3c2=O)c1C,-10.3
8,Cc1ncc(C)c(N2CCC(CCc3ccccc3)(C(=O)O)CC2)n1,-10.1
9,O=C(c1ccsc1)N1CCc2onc(CN3CCOCC3)c2C1,-4.87
10,CN(C)C(=O)c1noc2c1CN(C(=O)CCCN1CCCCC1)CC2,10.8
11,N#CCSCCCN1CCCC(C(=O)N2CCCCCC2)C1 (centres undefined),-4.07
12,CC(Nc1ccc(CCN2CCOCC2)cc1)C(=O)N(C)CCC#N (centres undefined),9.3
13,c1ccc(-c2cc(CC3(NCc4ncc[nH]4)COC3)no2)cc1,-4.27
14,CN(C)c1nc2c(c(N3CCC4(CC3)CNC(=O)C4)n1)CCCC2,-3.91
15,CN(C)C[C@H]1O[C@H](Cc2cc(-c3ccccn3)on2)CC[C@@H]1O,-4.76
16,Cc1cc(C(=O)NCc2ccnc(N3CCOCC3)c2)c(C)s1,-13.9
17,CCc1nnc(CN2CCCC(c3cc(C(F)(F)F)[nH]n3)C2)o1 (centres undefined),0.217
18,Cc1cn[nH]c1C1CCCCN1C(=O)CCc1ccc(F)cc1 (centres undefined),-6.22
19,COCCN1CCC(Cc2cncc(-c3ccc(C(=O)O)cc3)n2)CC1,8.54
20,CCN(CC)CC(=O)N(C)C(c1cccc(F)c1)c1ccccn1 (centres undefined),13.5
21,Cc1nn(C)c(C)c1CCC(=O)N1CC(c2cccnc2)C1,0.0861
22,COCC(=O)N1CCN(c2cc(C)nc(C3CCCN3C(C)=O)c2)CC1 (centres undefined),-0.659
23,Cc1ccc(-c2noc(CN3CCC(c4ccn[nH]4)CC3)n2)cc1,0.504

row,SMILES,cytotoxicity at 70.5 h [%]
1,CC1(C)CC(=O)c2cnc3nc(N4CCOCC4)nc(O)c3c2C1,-1.04
2,COc1ccccc1CN1CCCCC1c1n[nH]cc1-c1cc(C)no1 (centres undefined),-6.18
3,c1ccc(CN2Cc3[nH]nc(COCC4CC4)c3C2)nc1,-4.63
4,Oc1ccc(N(CCc2ccccc2)CCn2cncn2)cc1,7.13
5,CCS(=O)(=O)c1ccccc1C(=O)NCc1ccnc(N(C)C)c1,-11.2
6,NC(=O)c1csc(C(=O)N2CCCC(n3cccn3)C2)c1 (centres undefined),1.27
7,O=C(NCC1CCN(CCc2ccccc2)C1)NCC1(O)CCC1 (centres undefined),-3.77
8,Cc1cnc(N2CC3(CCN(Cc4cccnc4)C3)C2)nc1,-13.4
9,O=C(COc1ccccc1O)N1CCOC(C(F)(F)F)C1 (centres undefined),17.8
10,CC(=O)N(Cc1noc(C)n1)C1CCN(Cc2ccncc2Cl)C1 (centres undefined),-4.45
11,Cc1noc(C)c1C(=O)NCC(O)c1ccc(F)cc1F (centres undefined),27.1
12,CC(=O)N1CCC(NC2(Cc3cc(C(C)(C)O)on3)COC2)CC1,-7.16
13,O=C(NCCCn1cccn1)C1CCC(=O)N(CC2CCCCC2)C1 (centres undefined),-2.08
14,N[C@@H](Cc1ccccc1)c1nnc(S(=O)(=O)Cc2cccc(Cl)c2)o1,13.5
15,CCC(=O)N1CCCCC1c1nc(O)c2c(n1)CN(S(=O)(=O)CC)CC2 (centres undefined),-13.9
16,Cc1cc(Nc2cnccn2)cc(C2CCCNC2)n1 (centres undefined),-2.88
17,Cc1ccc(C)c(-n2ncc(C(=O)NCC3COC(C)(C)O3)c2N)c1 (centres undefined),18.9
18,CN(C)S(=O)(=O)N1CCCC(C)(c2ncc(C(N)=O)s2)C1 (centres undefined),5.78
19,COCCN1CCN(Cc2cccc(C(=O)N(C)C)c2)CC1,-4.26
20,COC[C@@]12CCC[C@@H]1CN(C(=O)Cc1ccccn1)C2,9.13
21,CC1=C[C@@H](CC#N)[C@H](C(C)C)C[C@H]1CC(=O)N1CCN(CCO)CC1,-8.18
22,O[C@H]1CC[C@@H](Cc2cc(-c3ccccn3)on2)O[C@@H]1CNCC1CC1,-7.3
23,CC(C)Sc1ccc(C(C)NC(=O)Cn2cccnc2=O)cc1 (centres undefined),-15.1

row,SMILES,cytotoxicity at 70.5 h [%]
1,c1ccc(-c2nnc(CN3CCCC(Cn4cncn4)C3)o2)cc1 (centres undefined),-7.29
2,CCn1cc(CN2CCCC(COc3ccc(F)cc3)C2)cn1 (centres undefined),12.1
3,COc1ccc(F)c(-c2ccnc(N)c2)c1,-14.3
4,COCCN(Cc1cccnc1)S(=O)(=O)c1ccc(F)cc1C,-4.8
5,COc1ccc2c(c1)C1(CCN(Cc3ccncc3)CC1)N(C)CC2,-10.8
6,CC(C)n1nc2c(cc1=O)CN(Cc1nc3ccccc3o1)CC2,10.1
7,N#Cc1ccc(C2CC(=O)Nc3c(C(=O)O)nsc32)cc1 (centres undefined),-5.94
8,c1cc2nccc(CC3CCCN(C4CCOCC4)CC3)c2cn1 (centres undefined),-1.46
9,Cc1ccc(CC(=O)N2CCn3cc(Cn4cncn4)nc3C2)cc1,-7.66
10,O=c1c2sccc2nc2n1CCN(Cc1cccs1)CC2,-18.8
11,Cc1ncc(C(=O)N2CC(C(=O)N3CCCCCC3)C2)c(C)n1,-4.02
12,c1cc2c(cc1CN1CCC(Cc3noc(C4CC4)n3)CC1)OCCO2,20.2
13,O=C(CC1CCCN1S(=O)(=O)N1CCCCC1)c1cccs1 (centres undefined),-3.32
14,CC(C)[C@@H]1CN(CCOc2ccc(Cl)cc2)C[C@H]1NS(C)(=O)=O,-3.97
15,CC(CC(=O)N1CCN(c2cnccn2)CC1)c1ccc(F)cc1 (centres undefined),0.499
16,Cc1nc2n(n1)CC(NCCC(=O)Nc1cc(C)on1)CC2 (centres undefined),-6.62
17,Cc1nc(NCc2ccc(F)cc2)cc(C(=O)N2CCOCC2)n1,-3.46
18,CCCc1noc(CN2CCCC2c2ccsc2)n1 (centres undefined),-17.8
19,O=C1NCC[C@]12CN(Cc1ccoc1)C[C@H]2c1ccccc1,16.2
20,CC(C)NC(=O)NC[C@H]1OC[C@@H](NCc2ccccc2O)[C@@H]1O,-2.12
21,CCCn1ncc(-c2ccnc(NC3CCSC3)n2)c1C (centres undefined),-12.7
22,N#CCCCn1nnc(C2(NC(=O)c3ccccc3)CCCC2)n1,-1.12
23,c1csc(CN2CCCn3cnc(CN4CCCC4)c3C2)c1,-2.7

row,SMILES,cytotoxicity at 70.5 h [%]
1,CCC1=N[C@@]2(CC[C@@H]3CN(CC(=O)N(C)C)C[C@@H]32)C(=O)N1CC(C)C,-6.91
2,CC(C)CN1C(=O)CC(N2CCN(c3ccc(F)cc3)CC2)C1=O (centres undefined),13.6
3,O=C(NCC1CC1)C1CN(C(=O)c2cccs2)CC12CCOCC2 (centres undefined),-13.2
4,COCc1noc(CN2CC(Cc3ccccc3)CC2=O)n1 (centres undefined),-20.6
5,CCn1c(C)nnc1SCCn1cc(-c2ncc[nH]2)nn1,-5.72
6,Cc1cc(NC(=O)CN2CCN(c3nccs3)C(C)C2)no1 (centres undefined),-8.11
7,O=C(O)c1c(-c2cccnc2)ncc2c1CCN(CC1CCOC1)C2 (centres undefined),16.6
8,CNS(=O)(=O)c1ccc(CNC(=O)Nc2cc(C)on2)s1,-6.5
9,OCC1(Cc2ccc(F)cc2F)CCCN(Cc2ccncc2)C1 (centres undefined),-5.76
10,O=C(Cc1cnccn1)N1C[C@H]2CC[C@@H]1CN(Cc1cscn1)C2,-12.8
11,CCc1nc(C2CCCN2Cc2ccno2)no1 (centres undefined),-14.3
12,Cc1cc(C(=O)N2CCc3ncc(CN4CCCCC4)n3CC2)no1,21.9
13,O=C1CC(C(=O)O)C2(CCN(C(=O)NCc3ccc(Cl)cc3)CC2)N1 (centres undefined),-2.42
14,CC(c1ccccn1)N(C)C(=O)NCCn1c(=O)oc2ccccc21 (centres undefined),6.82
15,Cn1cccc(NC(=O)N2CCC(CSc3ccccc3)C2)c1=O (centres undefined),-13.5
16,Cn1cc(N)c(-c2nnc3n2CCCC3)n1,-0.222
17,CC(C)Cn1cncc1CNC1CCSC1 (centres undefined),21.1
18,COCC(=O)N1CCN(C(C)C(=O)NC(C)C)CC1 (centres undefined),5.85
19,CC(C)c1nc(CN2CCN(C(=O)CC3CCCCC3)CC2)no1,7.95
20,CCCC(C)NC(=O)CCN1C(=O)CCc2cc(F)ccc21 (centres undefined),2.38
21,COc1ccc(CNc2nncs2)cc1F,-2.65
22,CC(C)=CCN1CCN(Cc2nccn2C)[C@H]2CS(=O)(=O)C[C@H]21,-7.09
23,CN(C)CCOCc1cncc2c1CCN(Cc1ccccn1)C2,-10.9

row,SMILES,cytotoxicity at 70.5 h [%]
1,Cn1c(CC2CCS(=O)(=O)C2)nnc1SCCOc1ccccc1F (centres undefined),-8.16
2,Cc1nc(-c2c(C)noc2C)cc(C2CCN(CC(=O)N(C)C)CC2)n1,5.85
3,O=C(NCCn1ccnc1)C1COCC(=O)N1Cc1ccccc1 (centres undefined),9.74
4,CC(C)Oc1ccc(CNC(=O)NCC(C)(C)C(N)=O)cc1F,-5.2
5,Cc1nc(O)cc(C2CCCN(C(=O)CN(C)c3ccccc3)C2)n1 (centres undefined),1.65
6,CCN(CC)C1CCN(C(=O)NCc2c(C)noc2C)CC1,-7.03
7,COc1ccc(F)cc1CN1CCC(O)(CN2CCCCC2)C1 (centres undefined),-6.56
8,COc1ccccc1-c1noc(CN2CCCC2Cn2cccn2)n1 (centres undefined),12.5
9,CCc1ccc(CNC(=O)NC(C)CN2CCOCC2)s1 (centres undefined),6.35
10,CCn1c(C2CCN(C(=O)COCC(F)(F)C(F)F)CC2)n[nH]c1=O,-6.79
11,Cc1ccc(C)c(CSc2nnc([C@@H](N)C(C)C)o2)c1,-0.583
12,CS(=O)(=O)NCC1CCCCN1C(=O)Nc1cccnc1N1CCCC1 (centres undefined),39.8
13,CCc1cccc(N2CCC(NC(=O)c3ccncc3)CC2)c1,-4.49
14,COc1ccc2c(c1)OCC(Cc1cc(C(=O)N3CCCC3)ccn1)C2 (centres undefined),-32.3
15,Cc1nn(C)c2nc(N(C)CCN(C)C)sc12,-9.29
16,Cc1csc2c(N3CCNC(C(=O)N4CCCC4)C3)ncnc12 (centres undefined),-7.34
17,CCc1ncnc2c1CCN(C(=O)N1CCCC1)CC2,20.9
18,COCCNC(=O)NCCn1nc(C(F)(F)F)n(C)c1=O,-4.7
19,O=C(CCn1cncn1)NCC1CCCC1,-6.57
20,CC[C@H]1CN2CC[C@H]1C[C@@H]2CNC(=O)Nc1cc(OC)cc(OC)c1,0.42
21,CC1CCN(C(=O)c2ccn(COc3ccccc3)n2)CC1,-4.91
22,CN(Cc1cc(Br)cn1C)C(=O)Cc1cccnc1,-9.83
